This is an account of results in paper PMC8311653, “Design, Synthesis, In Vitro and In Vivo Characterization of Selective NKCC1 Inhibitors for the Treatment of Core Symptoms in Down Syndrome” (Journal of Medicinal Chemistry, 2021).

Series [1] can be described thus: In vitro metabolic stability in mouse liver microsomes. The following applies: tissue homogenate, pH 7.4. The method, boiled down:
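Compound incubated in mouse liver microsomes in 0.1M Tris-HCl pH 7.4 with 10% DMSO; after pre-incubation NADPH, G6P, G6PDH and MgCl2 added, then 37 °C for 1h, sampled at 0, 5, 15, 30, 60 min.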
On the technique in general: Liver microsomes are a subcellular fraction often used to study metabolism.

A short description of series [2]: Aqueous kinetic solubility in PBS pH 7.4. The format is physicochemical. The following applies: aqueous kinetic solubility from 10 mM DMSO solution in PBS pH 7.4, target concentration 250 μM (final DMSO 2.5%). As to the method: 1. Aqueous kinetic solubility.
30 µL aliquots of 10 mM DMSO stock solution of the test compound were incubated in Phosphate
Buffered Saline (PBS) at pH 7.4 at 25°C for 24h. After centrifugation the dissolved compound in the
supernatant was quantified by LC-MS/MS.
Aqueous kinetic solubility was determined by UV quantification at
215 nm. […]

The target of series [3] is T1, NKCC1 (Mus musculus, UniProt P55012).
T1 construct: primary neuronal cultures of dissociated hippocampal neurons were prepared from E18 C57BL/6J mice; endogenous in cells; host or cells: primary hippocampal neurons from E18 C57BL/6J mice, 3 DIV
T1 sequence (P55012 1-1205): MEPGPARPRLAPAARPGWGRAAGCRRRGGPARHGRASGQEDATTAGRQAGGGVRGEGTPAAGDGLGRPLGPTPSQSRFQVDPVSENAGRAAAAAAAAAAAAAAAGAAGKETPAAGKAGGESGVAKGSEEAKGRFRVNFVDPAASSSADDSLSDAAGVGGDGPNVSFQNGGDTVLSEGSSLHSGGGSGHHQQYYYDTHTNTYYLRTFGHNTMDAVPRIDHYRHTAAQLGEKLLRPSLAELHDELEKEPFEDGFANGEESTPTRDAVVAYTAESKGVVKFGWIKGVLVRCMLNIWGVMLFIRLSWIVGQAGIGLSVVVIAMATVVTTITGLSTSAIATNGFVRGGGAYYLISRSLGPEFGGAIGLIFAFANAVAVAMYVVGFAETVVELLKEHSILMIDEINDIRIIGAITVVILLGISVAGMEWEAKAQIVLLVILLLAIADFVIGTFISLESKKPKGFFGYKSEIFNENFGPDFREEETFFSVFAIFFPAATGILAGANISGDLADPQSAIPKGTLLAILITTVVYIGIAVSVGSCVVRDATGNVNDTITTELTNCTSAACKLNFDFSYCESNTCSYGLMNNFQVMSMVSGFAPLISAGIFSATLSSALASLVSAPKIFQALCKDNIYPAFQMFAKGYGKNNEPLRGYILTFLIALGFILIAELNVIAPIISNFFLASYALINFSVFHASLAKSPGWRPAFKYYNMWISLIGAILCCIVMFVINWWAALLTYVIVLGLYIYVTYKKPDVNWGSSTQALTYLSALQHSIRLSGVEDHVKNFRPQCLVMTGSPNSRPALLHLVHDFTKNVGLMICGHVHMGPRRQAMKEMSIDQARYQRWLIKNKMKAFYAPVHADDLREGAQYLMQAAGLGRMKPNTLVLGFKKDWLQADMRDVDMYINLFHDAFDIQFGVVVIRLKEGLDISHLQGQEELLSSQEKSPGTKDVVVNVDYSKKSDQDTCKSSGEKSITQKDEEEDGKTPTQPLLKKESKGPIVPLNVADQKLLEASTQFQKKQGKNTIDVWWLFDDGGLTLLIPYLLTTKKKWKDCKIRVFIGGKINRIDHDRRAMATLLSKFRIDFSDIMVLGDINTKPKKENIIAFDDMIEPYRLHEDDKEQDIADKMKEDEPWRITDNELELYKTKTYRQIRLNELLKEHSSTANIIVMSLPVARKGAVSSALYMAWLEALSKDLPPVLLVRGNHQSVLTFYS
The series can be described thus: Ca2+ influx assay in immature primary neuronal cultures (indirect measure of NKCC1 inhibition). Format: cell-based. As to the method:
To perform the Ca^2+-influx assay, primary neuronal cultures of dissociated hippocampal neurons were prepared from E18 C57BL/6J mice (Charles River) as previously described[56] and plated in 96-well black-walled, clear-bottomed plates coated with poly-L-lysine (Sigma; 0.1 mg/mL in 100 mM borate buffer, pH 8.5) at a density of 30,000 cells per well. Neurons were maintained in neurobasal medium supplemented with 2% B-27 supplement, 0.5 mM glutamine, 50 U/mL of penicillin, and 50 μg/mL of streptomycin (all from Gibco). The cells were incubated at 37 °C and 5% CO2 until DIV 3 for the Ca^2+ influx assay.
At 3 DIVs, neurons were loaded with 2.5 μM of the Ca^2+-sensitive day Fluo4-AM (Invitrogen) in extracellular solution (145 mM NaCl, 5 mM KCl, 10 mM HEPES, 5.55 mM glucose, 1 mM MgCl2, and 2 mM CaCl2, pH 7.4). After 15 min, cells were washed twice with extracellular solutions and treated with bumetanide (as a positive control), DMSO (as a negative control), or each of our compounds at 10 μM or 100 μM, in extracellular solution for 15 min. Plates were then loaded onto a Spark (Tecan) multiplate reader equipped with an automatic liquid injector system, and Fluo4 fluorescence was recorded with excitation at 485 nm and emission at 535 nm. For each well, fluorescence was first recorded for 20 s of the baseline and for 20 s after delivery of GABA (100 μM). To evaluate neuronal viability, fluorescence was recorded for an additional 20 s after delivery of a depolarizing KCl stimulus (90 mM final concentration in wells). To represent the fluorescent traces in time, we normalized the fluorescence value for each time point to the average of the fluorescence value for the first 20 s of the baseline (ΔF/F0). To quantify the average effects as represented by the bar plots, we measured the maximum peak increase in ΔF/F0 fluorescence upon GABA application normalized over the maximum peak increase in ΔF/F0 fluorescence upon KCl application. We then presented in the figures all the data as a percentage of the fluorescence increase versus the value of the control DMSO.

Where [4] appears, read: phosphate buffered saline (PBS).
[5] abbreviates: 100 μM, cultured neurons, 3 DIV.

Structures are written as SMILES. Bounds are passed on as bounds.

With `CN(C)S(=O)(=O)c1cc(C(=O)O)ccc1NCCCCCCCC(F)(F)F` [Compound 1, 3-(-N,N-Dimethylsulfamoyl)-4-(8,8,8-trifluorooctylamino)benzoic Acid], the half-life at 5 μM in series [1] was more than 1 h. In series [2] (setting [4]), the solubility at 24 h is more than 250 µM. Moreover, the inhibition at 10 µM in series [3] (cultured neurons, 3 DIV) amounted to 45.7 ± 4.3%. Further, in series [3] (setting [5]), 100 µM produced 92.8 ± 1.9% inhibition.
Compound `CN(C)S(=O)(=O)c1cc(C(=O)O)c(O)cc1NCCCCCCCC(F)(F)F` [Compound 40, 5-(N,N-Dimethylsulfamoyl)-2-hydroxy-4-((8,8,8-trifluorooctyl)amino)benzoic Acid] had a half-life at 5 μM in series [1] of more than 1 h. In series [2] (setting [4]), this compound displayed a solubility at 24 h of more than 250 µM. Further, the inhibition at 10 µM in series [3] (cultured neurons, 3 DIV) is 13.9 ± 2%. In addition, in series [3] (setting [5]), the “Inhibition 100 μM Ca2+ influx (%)” value is listed as 51.9 ± 4.0% and the inhibition at 100 µM is 51.8 ± 4%. The “inhibition of NKCC1 in the Ca2+ influx assay (dose dependence)” value in series [3] (neuronal cultures, Figures 4A and S2) was “significant dose-dependent inhibition”.
In series [1], `CCCCNc1cc(C(=O)O)cc(S(N)(=O)=O)c1Oc1ccccc1` [bumetanide, reference compound] had a half-life at 5 μM of more than 1 h. In addition, the solubility at 24 h in series [2] was more than 250 µM. The compound further came in with an inhibition at 10 µM in series [3] (cultured neurons, 3 DIV) of 51.9 ± 2.3%. Further, in series [3] (setting [5]), the inhibition at 100 µM is 54.7 ± 2.5%.

The half-life is how long it takes for the measured level to halve. High values mean slow decline, low ones rapid decline. What is called solubility is how much of the substance goes into solution per volume. The low end stands for little dissolved substance, the high end for much dissolved substance. As usually defined, the inhibition is the relative decrease from the control value, in per cent.
